This note sets out measurements from US8242078B2, “Therapeutics to inhibit MLL-menin interaction for treating leukemia” (The University of Chicago, priority 2006, dated 2012).

For series [1], the system named is normal human CD34+ cells. The experiment in a line: Erythroid differentiation of normal human CD34+ cells, day 10. Type of series: cell-based. Particulars: 7.5 μm or 10 μm. On the procedure:
(§1) To assess the effects of TAT-MLL peptide on hematopoiesis, normal human CD34^+ cells were incubated with either the TAT-MLL peptide or the TAT-scrambled peptide at a concentration of either 7.5 μm or 10 μm. There was no effect of either the TAT-MLL peptide or the TAT-scrambled peptide on myeloid or erythroid differentiation. […] CD14-PE, CD15-FITC, CD71-FITC and GlyA (CD235a)-PE antibodies were obtained from Becton Dickinson

The subject of series [2] is normal human CD34+ cells. The experiment in a line: Myeloid differentiation of normal human CD34+ cells, day 10. Type of series: cell-based. The conditions noted are these: 7.5 μm or 10 μm. On the procedure: as §1
In series [3] the target is T1, interaction of transfected MLL with endogenous menin (Homo sapiens, UniProt O00255).
T1 construct: endogenous in cells; host or cells: 293 cells (lysate; cells transfected with FLAG-MLL 1-330)
T1 sequence (O00255 1-610): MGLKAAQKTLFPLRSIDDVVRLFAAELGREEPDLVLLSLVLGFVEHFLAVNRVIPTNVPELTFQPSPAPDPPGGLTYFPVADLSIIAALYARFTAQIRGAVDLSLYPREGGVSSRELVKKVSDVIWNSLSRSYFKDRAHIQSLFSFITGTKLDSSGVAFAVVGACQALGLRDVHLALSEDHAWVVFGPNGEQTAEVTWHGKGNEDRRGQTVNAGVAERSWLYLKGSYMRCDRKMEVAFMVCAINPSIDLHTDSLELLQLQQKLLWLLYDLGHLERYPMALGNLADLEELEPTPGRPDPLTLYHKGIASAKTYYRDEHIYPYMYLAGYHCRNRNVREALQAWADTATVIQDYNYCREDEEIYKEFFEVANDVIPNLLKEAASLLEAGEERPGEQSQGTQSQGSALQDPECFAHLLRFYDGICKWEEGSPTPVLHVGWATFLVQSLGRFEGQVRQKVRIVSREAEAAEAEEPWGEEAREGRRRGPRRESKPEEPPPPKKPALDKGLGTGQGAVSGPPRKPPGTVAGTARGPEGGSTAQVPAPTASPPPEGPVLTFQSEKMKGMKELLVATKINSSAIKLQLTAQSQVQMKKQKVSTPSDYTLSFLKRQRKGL
Briefly: Disruption of binding of transfected FLAG-tagged MLL 1-330 to endogenous menin (anti-FLAG immunoprecipitation, anti-menin Western blot). Particulars: each peptide tested at 10, 20, and 30 μM. The method, then: To determine the precise domain that mediates the binding of MLL to menin, a series of peptides from the N-terminus of MLL were synthesized. To assess disruption of binding of transfected MLL to endogenous menin, a FLAG-tagged MLL 1-330 construct was transfected into 293 cells and the cell lysates were incubated with a series of peptides listed below or with water as a control. Cell lysates were immunoprecipitated with anti-FLAG antibody (Sigma), separated by SDS-PAGE and blotted with an anti-menin antibody (Bethyl Laboratories Inc, or Santa-Cruz). The amino acid numbers from the N-terminus of MLL are indicated below (preceding the amino acid sequence) for the peptides analyzed for their ability to disrupt the interaction of MLL and menin.
Conditional inactivation of menin results in the reversal of the transforming properties of MLL fusion proteins. A high affinity menin binding domain has been localized to the N-terminal residues of MLL, and deletion of residues 6 through 10 of MLL prevents MLL-ELL from transforming hematopoietic progenitor cells. To target the MLL-menin interaction, a series of peptides were developed for the potential to block the interaction of menin with MLL. To establish the activity of these peptides, lysates of cells transfected with FLAG-tagged N-terminal MLL sequences were examined. The lysates were immunoprecipitated with a FLAG antibody, incubated with either an MLL peptide or a control scrambled peptide, and then blotted with an anti-menin antibody. […] To examine the activity of the TAT-MLL peptide, mouse and human leukemia cell lines were treated with the TAT-MLL peptide. […] (#TIB-202, American Type Culture Collection, Manassas, Va.).
A general note: In western blotting, separated proteins are transferred to a membrane and probed.

In another series the test system is Leukemia cell lines. Briefly: Relative growth inhibition of TAT-MLL vs TAT-MLL mutant (MTS cell proliferation assay). Type of series: cell-based. Background: Tetrazolium dyes change colour on reduction, which living cells bring about.

“Also recorded” adds a separate entry of the source. Peptide text beside a SMILES is read from it.

In the case of `C[C@H](NC(=O)[C@@H]1CCCN1C(=O)[C@H](Cc1ccccc1)NC(=O)[C@H](CCCNC(=N)N)NC(=O)[C@H](Cc1c[nH]c2ccccc12)NC(=O)[C@H](CCCNC(=N)N)NC(=O)[C@H](CS)NC(=O)CNC(=O)CNC(=O)[C@H](CCCNC(=N)N)NC(=O)[C@H](CCCNC(=N)N)NC(=O)[C@H](CCCNC(=N)N)NC(=O)[C@H](CCC(N)=O)NC(=O)[C@H](CCCNC(=N)N)NC(=O)[C@H](CCCNC(=N)N)NC(=O)[C@H](CCCCN)NC(=O)[C@H](CCCCN)NC(=O)[C@@H](N)CCCNC(=N)N)C(=O)N[C@@H](CCCNC(=N)N)C(=O)N1CCC[C@H]1C(=O)NCC(=O)O` [TAT-MLL, RKKRRQRRR-GG-CRWRFPARPG (SEQ ID NO: 15)] (H-RKKRRQRRRGGCRWRFPARPG-OH), the “effect on erythroid differentiation (in words)” value in the series with normal human CD34+ cells [1] is reported as “no effect”. The “effect on myeloid differentiation (in words)” value in the series with normal human CD34+ cells [2] is given as “no effect”.
On to `C[C@H](NC(=O)[C@H](CCCNC(=N)N)NC(=O)CNC(=O)CNC(=O)[C@H](CCCNC(=N)N)NC(=O)[C@H](CCCNC(=N)N)NC(=O)[C@H](CCCNC(=N)N)NC(=O)[C@H](CCC(N)=O)NC(=O)[C@H](CCCNC(=N)N)NC(=O)[C@H](CCCNC(=N)N)NC(=O)[C@H](CCCCN)NC(=O)[C@H](CCCCN)NC(=O)[C@@H](N)CCCNC(=N)N)C(=O)N[C@@H](Cc1ccccc1)C(=O)N[C@@H](CCCNC(=N)N)C(=O)N1CCC[C@H]1C(=O)N[C@@H](CS)C(=O)N1CCC[C@H]1C(=O)N[C@@H](CCCNC(=N)N)C(=O)N[C@@H](Cc1c[nH]c2ccccc12)C(=O)NCC(=O)O` [TAT-scrambled, RKKRRQRRR-GG-RAFRPCPRWG (SEQ ID NO: 18), reference compound] (H-RKKRRQRRRGGRAFRPCPRWG-OH), for which the “effect on erythroid differentiation (in words)” value in the series with normal human CD34+ cells [1] is recorded as “no effect”. In addition, the “effect on myeloid differentiation (in words)” value in the series with normal human CD34+ cells [2] is reported as “no effect”.
Regarding “RKKRRQRRR-GG-CRWRFGARGG (SEQ ID NO: 16) (RKKRRQRRRGGCRWRFGARGG) [TAT-MLL-G 5-14, TAT-MLL 5-14 peptide with prolines replaced by glycines, used as a control, reference compound]”, the “inhibition of the binding of transfected MLL 1-330 to endogenous menin (Western blot, FIG. 2)” value in series [3] is reported as “did not inhibit the binding of MLL1-330 with menin; also recorded: did not block the interaction of MLL with menin”. Also, in the series on Leukemia cell lines, the “effect on proliferation, TAT-MLL vs TAT-MLL mutant (FIG. 6)” value is “significantly decreases the effect of the peptide on proliferation”.
